Reference: US8192962B2, “Processes for detecting toxic substances” (Daikin Industries, Ltd., priority 2001, dated 2012)

Test system: Mitochondria-located protein genes
Test: DNA chip mRNA expression in yeast, mitochondria-located protein genes (Table 2)
Type: cell-based, Saccharomyces cerevisiae S288C
Settings: cells incubated two hours with the chemical substance
Experimental: Yeast (Saccharomyces cerevisiae S288C (α SUC2mal mel gap2 CUP1)) were incubated at 25° C. on YPD medium (yeast extract 1%, polypepton 2%, glucose 2%). One of toxic chemical substances was added to the cells at logarithmic growth phase, and the cells were further incubated for two hours. Cells were cultured without any chemical substance in the same condition, and were used as control. Concentrations of the chemical substances were defined to inhibit the growth of the yeast but not lead to death.
After completion of the incubation, the culture was centrifuged to collect the cells. To the cells, sodium acetate buffer (50 mM sodium acetate, 10 mM EDTA, 1% SDS) was added, and the mixture was shaken at 65° C. for five minutes, followed by returning to room temperature, and obtaining the supernatant, of which the procedures were repeated two times. To the supernatant, ½ amount of a solution of phenol/chloroform was added, and the mixture was centrifuged to give a supernatant, which was added with an equal amount of chloroform, and the mixture was centrifuged to give a supernatant. To the supernatant, an equal amount of isopropanol containing 0.3 M sodium acetate was added, and the mixture was allowed to stand at room temperature for 30 minutes, after which the mixture was centrifuged to give a sediment of the whole RNAs. Seventy % ethanol was added to the sediment, and the mixture was again centrifuged to give a sediment, which was then dried and dissolved in water. mRNA was isolated from the whole RNAs as followings. In view of the fact that a poly A chain is attached to the 3′ terminus of mRNA, a polynucleotide having a poly T structure which was immobilized on the surface of latex beads was used to trap the mRNA, and then the mRNA was washed and eluted with spine column (Oligotex-dT30<Super>mRNA Purification Kit, Takara). Reverse transcription of the mRNA was conducted with a reverse transcriptase (Super Script II Reverse Transcriptase; catalogue No. 18064-014, GibcoBRL) using fluorescence-labeled nucleotides to give cDNAs that were introduced with Cy3-dUTP or Cy5-dUTP during the reverse transcription.
The labeled cDNAs were dissolved in TE buffer (10mM Tris-HCl/1 mM EDTA, pH8.0), and the solution was dropped on the DNA chip containing the whole genes of yeast (DNA Chip Research Inc. Japan) so that the cDNAs were hybridized on the DNA chip at 65° C. for over 12 hours. The fluoresces intensity of the DNA chip was read with a scanner, and the ratio relative to the fluorescence intensity resulting from the absence of chemical substance was estimated as the following, which is shown in Tables 1 to 9: […]

`[Cl][Cd][Cl]` [(2), CdCl2] was tested, and the “The level of expressed mRNA in the presence of chemical substance/The level of expressed mRNA in the absence of chemical substance” value (yeast gene YJR121W) was 1.1, the “The level of expressed mRNA in the presence of chemical substance/The level of expressed mRNA in the absence of chemical substance” value (yeast gene YKL003C) was 0.7 and the “The level of expressed mRNA in the presence of chemical substance/The level of expressed mRNA in the absence of chemical substance” value (yeast gene YKL016C) was 1.3. For the same molecule, the “The level of expressed mRNA in the presence of chemical substance/The level of expressed mRNA in the absence of chemical substance” value (yeast gene YKL141W) was 1.1, the “The level of expressed mRNA in the presence of chemical substance/The level of expressed mRNA in the absence of chemical substance” value (yeast gene YKL142W) was 2.7 and the “The level of expressed mRNA in the presence of chemical substance/The level of expressed mRNA in the absence of chemical substance” value (yeast gene YKL148C) was 0.8. For the same molecule, the “The level of expressed mRNA in the presence of chemical substance/The level of expressed mRNA in the absence of chemical substance” value (yeast gene YKL170W) was 0.8, the “The level of expressed mRNA in the presence of chemical substance/The level of expressed mRNA in the absence of chemical substance” value (yeast gene YKL194C) was 0.7 and the “The level of expressed mRNA in the presence of chemical substance/The level of expressed mRNA in the absence of chemical substance” value (yeast gene YKR066C) was 1.4. For the same molecule, the “The level of expressed mRNA in the presence of chemical substance/The level of expressed mRNA in the absence of chemical substance” value (yeast gene YLL041C) was 0.5, the “The level of expressed mRNA in the presence of chemical substance/The level of expressed mRNA in the absence of chemical substance” value (yeast gene YLR038C) was 1.1 and the “The level of expressed mRNA in the presence of chemical substance/The level of expressed mRNA in the absence of chemical substance” value (yeast gene YLR259C) was 1.0. The “The level of expressed mRNA in the presence of chemical substance/The level of expressed mRNA in the absence of chemical substance” value (yeast gene YLR295C) was 1.1, the “The level of expressed mRNA in the presence of chemical substance/The level of expressed mRNA in the absence of chemical substance” value (yeast gene YLR304C) was 0.6 and the “The level of expressed mRNA in the presence of chemical substance/The level of expressed mRNA in the absence of chemical substance” value (yeast gene YLR348C) was 4.5. The “The level of expressed mRNA in the presence of chemical substance/The level of expressed mRNA in the absence of chemical substance” value (yeast gene YLR395C) was 1.3, the “The level of expressed mRNA in the presence of chemical substance/The level of expressed mRNA in the absence of chemical substance” value (yeast gene YML054C) was 1.8 and the “The level of expressed mRNA in the presence of chemical substance/The level of expressed mRNA in the absence of chemical substance” value (yeast gene YML120C) was 1.2. The “The level of expressed mRNA in the presence of chemical substance/The level of expressed mRNA in the absence of chemical substance” value (yeast gene YML129C) was 0.9, the “The level of expressed mRNA in the presence of chemical substance/The level of expressed mRNA in the absence of chemical substance” value (yeast gene YMR023C) was 1.3 and the “The level of expressed mRNA in the presence of chemical substance/The level of expressed mRNA in the absence of chemical substance” value (yeast gene YMR035W) was 1.7. For the same molecule, the “The level of expressed mRNA in the presence of chemical substance/The level of expressed mRNA in the absence of chemical substance” value (yeast gene YMR083W) was 1.7, the “The level of expressed mRNA in the presence of chemical substance/The level of expressed mRNA in the absence of chemical substance” value (yeast gene YMR089C) was 1.1 and the “The level of expressed mRNA in the presence of chemical substance/The level of expressed mRNA in the absence of chemical substance” value (yeast gene YMR152W) was 1.1. For the same molecule, the “The level of expressed mRNA in the presence of chemical substance/The level of expressed mRNA in the absence of chemical substance” value (yeast gene YMR203W) was 0.7, the “The level of expressed mRNA in the presence of chemical substance/The level of expressed mRNA in the absence of chemical substance” value (yeast gene YMR267W) was 1.8 and the “The level of expressed mRNA in the presence of chemical substance/The level of expressed mRNA in the absence of chemical substance” value (yeast gene YNL055C) was 1.8. For the same molecule, the “The level of expressed mRNA in the presence of chemical substance/The level of expressed mRNA in the absence of chemical substance” value (yeast gene YNL071W) was 0.9, the “The level of expressed mRNA in the presence of chemical substance/The level of expressed mRNA in the absence of chemical substance” value (yeast gene YNL073W) was 1.4 and the “The level of expressed mRNA in the presence of chemical substance/The level of expressed mRNA in the absence of chemical substance” value (yeast gene YNL104C) was 1.3. The “The level of expressed mRNA in the presence of chemical substance/The level of expressed mRNA in the absence of chemical substance” value (yeast gene YNL256W) was 1.6, the “The level of expressed mRNA in the presence of chemical substance/The level of expressed mRNA in the absence of chemical substance” value (yeast gene YOL096C) was 1.0 and the “The level of expressed mRNA in the presence of chemical substance/The level of expressed mRNA in the absence of chemical substance” value (yeast gene YOR020C) was 2.1. The “The level of expressed mRNA in the presence of chemical substance/The level of expressed mRNA in the absence of chemical substance” value (yeast gene YOR037W) was 1.5, the “The level of expressed mRNA in the presence of chemical substance/The level of expressed mRNA in the absence of chemical substance” value (yeast gene YOR100C) was 1.4 and the “The level of expressed mRNA in the presence of chemical substance/The level of expressed mRNA in the absence of chemical substance” value (yeast gene YOR130C) was 1.7. For the same molecule, the “The level of expressed mRNA in the presence of chemical substance/The level of expressed mRNA in the absence of chemical substance” value (yeast gene YOR142W) was 1.2, the “The level of expressed mRNA in the presence of chemical substance/The level of expressed mRNA in the absence of chemical substance” value (yeast gene YOR150W) was 1.2 and the “The level of expressed mRNA in the presence of chemical substance/The level of expressed mRNA in the absence of chemical substance” value (yeast gene YOR176W) was 2.6. For the same molecule, the “The level of expressed mRNA in the presence of chemical substance/The level of expressed mRNA in the absence of chemical substance” value (yeast gene YOR187W) was 0.5, the “The level of expressed mRNA in the presence of chemical substance/The level of expressed mRNA in the absence of chemical substance” value (yeast gene YOR316C) was 2.5 and the “The level of expressed mRNA in the presence of chemical substance/The level of expressed mRNA in the absence of chemical substance” value (yeast gene YPL040C) was 1.0. For the same molecule, the “The level of expressed mRNA in the presence of chemical substance/The level of expressed mRNA in the absence of chemical substance” value (yeast gene YPL134C) was 1.0, the “The level of expressed mRNA in the presence of chemical substance/The level of expressed mRNA in the absence of chemical substance” value (yeast gene YPL135W) was 1.2 and the “The level of expressed mRNA in the presence of chemical substance/The level of expressed mRNA in the absence of chemical substance” value (yeast gene YPL215W) was 1.9. For the same molecule, the “The level of expressed mRNA in the presence of chemical substance/The level of expressed mRNA in the absence of chemical substance” value (yeast gene YPL262W) was 1.7, the “The level of expressed mRNA in the presence of chemical substance/The level of expressed mRNA in the absence of chemical substance” value (yeast gene YPR024W) was 1.0 and the “The level of expressed mRNA in the presence of chemical substance/The level of expressed mRNA in the absence of chemical substance” value (yeast gene YPR037C) was 2.3. The “The level of expressed mRNA in the presence of chemical substance/The level of expressed mRNA in the absence of chemical substance” value (yeast gene YPR047W) was 1.0 and the “The level of expressed mRNA in the presence of chemical substance/The level of expressed mRNA in the absence of chemical substance” value (yeast gene YPR134W) was 1.1.
